Reference: ChEMBL document CHEMBL6153170 (J Med Chem, 2025)
Active and inactive are the calls of the source. The rule behind the calls is not given here.

Legend:
B16-F10 [1] = test: Antitumor immunity activity against mouse B16-F10 cells implanted in C57BL/6 mouse model assessed as CD3+ CD8+ T cell percentage in tumor at 20 mg/kg/day, ip administered for 14 days by flow cytometric analysis (reference value: 0.52 %); format: functional; conditions: time 14 day
[2] = MRT (0 to t) in male Sprague-Dawley rat at 2 mg/kg, iv measured after 48 hrs by triple quadrupole mass spectrometric analysis; format: ADME, organism-based; conditions: in vivo
[3] = Toxicity in C57 mouse assessed as myelosuppression by measuring platelet level at 20 mg/kg/day, IG administered for 14 days by heat map analysis; format: organism-based; conditions: in vivo, po, 336 h, time 14 day
[4] = Toxicity in C57 mouse assessed as myelosuppression by measuring PCT level at 20 mg/kg/day, IG administered for 14 days by heat map analysis; format: organism-based; conditions: in vivo, po, 336 h, time 14 day
[5] = Toxicity in C57 mouse assessed as change in UREA level at 20 mg/kg/day, IG administered for 14 days by heat map analysis; format: organism-based; conditions: in vivo, po, 336 h, time 14 day
[6] = biological target: T1, Histone deacetylase 8 (Mus musculus) (UniProt Q8VH37); test: Inhibition of HDAC8 in mouse B16-F10 cells assessed as increase in acetylated SMC3 level incubated for 12 hrs by Western blot analysis; format: cell-based
T1 sequence (whole entry): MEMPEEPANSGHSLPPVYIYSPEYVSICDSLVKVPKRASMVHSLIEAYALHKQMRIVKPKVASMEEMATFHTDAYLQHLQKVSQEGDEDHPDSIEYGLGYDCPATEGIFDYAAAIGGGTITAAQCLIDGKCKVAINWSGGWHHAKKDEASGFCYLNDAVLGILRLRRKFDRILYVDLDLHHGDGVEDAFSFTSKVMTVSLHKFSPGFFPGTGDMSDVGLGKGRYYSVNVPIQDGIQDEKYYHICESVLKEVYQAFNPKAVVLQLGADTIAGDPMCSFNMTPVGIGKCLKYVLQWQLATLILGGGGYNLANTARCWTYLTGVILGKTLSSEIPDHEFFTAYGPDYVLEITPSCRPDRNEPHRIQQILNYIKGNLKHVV

[7] = Cmax in male Sprague-Dawley rat at 2 mg/kg, iv measured after 48 hrs by triple quadrupole mass spectrometric analysis; format: ADME, organism-based; conditions: in vivo
B16-F10 [8] = test: Downregulation of PD-L1 expression level in mouse B16-F10 cells at 0.1 to 2 uM incubated for 24 hrs by Western blot analysis; format: functional, cell-based; conditions: dose 0.1-2 µM
Jurkat = test: Effect on HDAC6 protein level in human Jurkat T cells at 0.1 to 2 uM incubated for 12 hrs by Western blot analysis; format: functional, cell-based; conditions: dose 0.1-2 µM
[9] = biological target: T2, Protein deacetylase HDAC6 (Mus musculus) (UniProt Q9Z2V5); test: Inhibition of HDAC6 in mouse B16-F10 cells assessed as increase in acetylated alpha-tubulin level incubated for 12 hrs by Western blot analysis; format: cell-based; conditions: dose 0.1-2 µM
T2 sequence (whole entry): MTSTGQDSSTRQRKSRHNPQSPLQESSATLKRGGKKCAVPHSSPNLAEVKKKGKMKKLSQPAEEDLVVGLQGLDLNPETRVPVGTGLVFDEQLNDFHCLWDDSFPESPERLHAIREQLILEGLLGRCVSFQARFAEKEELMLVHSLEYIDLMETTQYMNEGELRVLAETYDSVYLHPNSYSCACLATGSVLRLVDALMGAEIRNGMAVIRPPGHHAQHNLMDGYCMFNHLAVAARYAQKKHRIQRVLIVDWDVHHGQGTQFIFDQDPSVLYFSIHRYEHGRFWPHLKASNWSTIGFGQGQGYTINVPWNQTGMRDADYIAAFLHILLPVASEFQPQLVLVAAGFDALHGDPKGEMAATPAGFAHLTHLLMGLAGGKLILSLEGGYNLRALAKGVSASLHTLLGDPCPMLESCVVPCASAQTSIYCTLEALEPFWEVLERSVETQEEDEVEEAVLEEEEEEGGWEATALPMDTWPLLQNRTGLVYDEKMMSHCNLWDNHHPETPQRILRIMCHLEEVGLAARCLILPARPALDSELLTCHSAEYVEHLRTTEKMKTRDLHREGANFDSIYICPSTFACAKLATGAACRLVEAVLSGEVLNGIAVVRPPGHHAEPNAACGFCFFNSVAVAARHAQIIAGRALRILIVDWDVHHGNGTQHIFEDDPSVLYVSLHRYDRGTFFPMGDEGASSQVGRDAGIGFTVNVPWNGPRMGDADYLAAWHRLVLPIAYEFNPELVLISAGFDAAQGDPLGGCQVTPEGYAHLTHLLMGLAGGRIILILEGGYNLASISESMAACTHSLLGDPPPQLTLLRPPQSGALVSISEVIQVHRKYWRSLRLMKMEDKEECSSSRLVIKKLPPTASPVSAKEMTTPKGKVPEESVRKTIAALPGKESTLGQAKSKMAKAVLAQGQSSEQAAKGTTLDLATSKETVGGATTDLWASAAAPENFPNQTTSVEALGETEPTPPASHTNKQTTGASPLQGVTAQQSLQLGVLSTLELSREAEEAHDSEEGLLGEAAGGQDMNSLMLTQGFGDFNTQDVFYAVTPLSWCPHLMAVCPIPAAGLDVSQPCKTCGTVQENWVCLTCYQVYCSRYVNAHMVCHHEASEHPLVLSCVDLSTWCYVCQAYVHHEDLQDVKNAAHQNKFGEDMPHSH

[10] = AUC (0 to infinity) in male Sprague-Dawley rat at 2 mg/kg, iv measured after 48 hrs by triple quadrupole mass spectrometric analysis; format: ADME, organism-based; conditions: in vivo
B16-F10 [11] = test: Effect on STAT3 expression level in mouse B16-F10 cells at 0.1 to 2 uM incubated for 24 hrs by Western blot analysis; format: functional, cell-based; conditions: dose 0.1-2 µM
[12] = Apparent clearance during terminal phase in male Sprague-Dawley rat at 2 mg/kg, iv measured after 48 hrs by triple quadrupole mass spectrometric analysis; format: ADME, organism-based; conditions: in vivo
HepG2 [13] = test: Cytotoxicity against human HepG2 cells assessed as reduction in cell viability at 3.3 to 10 uM incubated for 48 hrs by MTT assay; format: functional, cell-based; conditions: dose 3.3-10 µM
HepG2 [14] = test: Cytotoxicity against human HepG2 cells assessed as reduction in cell viability at 0.01 to 1 uM incubated for 48 hrs by MTT assay; format: functional, cell-based; conditions: dose 0.01-1 µM
[15] = Toxicity in C57 mouse assessed as myelosuppression by measuring MCH level at 20 mg/kg/day, IG administered for 14 days by heat map analysis; format: organism-based; conditions: in vivo, po, 336 h, time 14 day
[16] = biological target: Programmed cell death 1 ligand 1 (Mus musculus, UniProt Q9EP73); test: Binding affinity to C-terminal 6His-tagged recombinant mouse PD-L1 (1 to 238 residues) expressed in HEK293 cells assessed as dissociation constant by SPR analysis
[17] = AUC (0 to t) in male Sprague-Dawley rat at 2 mg/kg, iv measured after 48 hrs by triple quadrupole mass spectrometric analysis; format: ADME, organism-based; conditions: in vivo
[18] = biological target: T2, Protein deacetylase HDAC6 (Mus musculus); test: In vivo inhibition of HDAC6 in C57BL/6 mouse model implanted with mouse B16-F10 cells assessed as increase in acetylated alpha-tubulin protein level in tumor at 20 mg/kg/day, ip administered for 14 days by Western blot analysis; format: functional, organism-based; conditions: time 14.0 day
[19] = Apparent volume of distribution during terminal phase in male Sprague-Dawley rat at 10 mg/kg, po measured after 48 hrs by triple quadrupole mass spectrometric analysis; format: ADME, organism-based; conditions: in vivo, read-out: Vz/F

Programmed cell death 1 ligand 1, sequence (Q9EP73 whole entry, the tested form may be a part): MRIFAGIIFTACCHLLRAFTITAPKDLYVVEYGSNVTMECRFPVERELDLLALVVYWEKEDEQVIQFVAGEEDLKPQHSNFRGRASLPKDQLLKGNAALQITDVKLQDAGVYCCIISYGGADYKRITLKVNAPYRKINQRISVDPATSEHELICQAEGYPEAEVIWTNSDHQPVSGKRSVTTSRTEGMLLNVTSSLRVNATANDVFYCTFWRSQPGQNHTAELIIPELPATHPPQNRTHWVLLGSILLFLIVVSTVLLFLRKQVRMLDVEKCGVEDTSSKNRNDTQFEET

MRT last at 48 h [2]: 7.06 h
inhibition [6]: inactive
Cmax [7]: 638 ng/mL
inhibition [9]: Dose-dependent-effect
AUC(0-inf) [10]: 1290 ng·h/mL
CLz/F [12]: 16.2 mL/min/kg
AUC(0-t) at 48 h [17]: 1140 ng·h/mL
inhibition [18]: Active
Vd/F [19]: 31.9 L/kg
Structure (SMILES): COc1nc(-c2cccc(-c3ccccc3)c2C)ccc1CNCCCCCCC(=O)NO
Activity (B16-F10 [1]): 11.19%
Activity [3]: Non-toxic
Activity [4]: Non-toxic
Activity [5]: Non-toxic
Activity (B16-F10 [8]): Active
Activity (Jurkat): inactive
Activity (B16-F10 [11]): inactive
Activity (HepG2 [13]): Active; Mild Cytotoxicity Observed
Activity (HepG2 [14]): inactive
Activity [15]: Non-toxic
Kd [16]: 55.3 nM
